From patent US8168645B2, “Arylsulfonamide compounds” (Genentech, Inc., priority 2006, dated 2012)

Key:
[1] = target: GST tagged BCl-xL ΔC25 protein (Homo sapiens, UniProt Q07817); test: Alphascreen competition binding assay, GST tagged Bcl-xL vs biotinylated Bim BH3-26 peptide; conditions: competition with Bim BH3-26 peptide; unit inferred
Text: (§1) Measurement of competition of compounds of the invention with Bim26-mer for a Bcl-2 homologue binding site.
(§2) Alphascreen (Amplified Luminescent Proximity Homogenous Assay) is a bead based technology which measures the interaction between molecules. The assay consists of two hydrogel coated beads which, when bought into close proximity by a binding interaction, allow the transfer of singlet oxygen from a donor bead to an acceptor bead.
(§3) Upon binding and excitation with laser light at 680 nm, a photosensitizer in the donor bead converts ambient oxygen to a more excited singlet state. This singlet oxygen then diffuses across to react with a chemiluminescer in the acceptor bead. Fluorophores within the same bead are activated resulting in the emission of light at 580-620 nm.
(§4) Screening of the compounds of the invention was performed using the Alphascreen GST (glutathione s-transferase) detection kit system. Test compounds were titrated into the assay which consisted of GST tagged Bclw ΔC29 protein (0.05 nM Final concentration) and Biotinylated Bim BH3-26 peptide, Biotin-[…] (3.0 nM Final concentration). For the GST tagged BCl-xL assay, GST tagged BCl-xL ΔC25 protein (0.6 nM Final concentration) and Biotinylated Bim BH3-26 peptide, Biotin-[…] (5.0 nM final concentration) were used. To this reaction mix anti-GST coated acceptor beads and Streptavidin coated donor beads, both at 15 μg/ml Final concentration, were added and the assay mixture incubated for 4 hours at room temperature before reading. Similarly when the Bcl-2 protein was Mcl-1, GST tagged Mcl-1 protein (0.4 nM Final concentration) and Biotinylated Bak BH3 peptide, Biotin-[…]-OH (4.0 nM Final concentration) were used.
(§5) • 1) prepare a 384 well with 4.75 μL of buffer and 0.25 μL of compounds (20 mM in DMSO) per well. • 2) Mix the binding partners, in one tube add Bcl-w, BCl-xL or Mcl-1 and the acceptor beads, in the second tube add Biotinylated BH3 peptide and the donor beads. • 3) Pre-incubate the two pairs of binding partners for 30 minutes. • 4) Add 1 μL of acceptor beads:Bcl-w, BCl-xL or Mcl-1 protein mix to each well. • 5) Seal the plate and incubate at room temperature for 30 minutes. • 6) Add 10 μL of donor bead:BH3 peptide mix to each well. • 7) Seal the plate, cover with foil and incubate for 4 hours.
(§6) Assay buffer contained 50 mM Hepes pH 7.4, 10 mM DTT, 100 mM NaCl, 0.05% Tween and 0.1 mg/ml casein. Bead dilution buffer contained 50 mM Tris, pH 7.5, 0.01% Tween and 0.1 mg/ml casein. The final DMSO concentration in the assay was 0.5%. Assays were performed in 384 well white Optiplates and analyzed on the PerkinElmer Fusion alpha plate reader (Ex680, Em520-620 nM).
(§7) The GST Alphascreen detection kit and Optiplates were purchased from PerkinElmer.

GST tagged Mcl-1 protein = GST tagged Mcl-1 protein (Homo sapiens, UniProt Q07820); test: Alphascreen competition binding assay, GST tagged Mcl-1 vs biotinylated Bak BH3 peptide; conditions: competition with Bak BH3 peptide; unit inferred
Sequence of GST tagged Mcl-1 protein (Q07820 whole entry): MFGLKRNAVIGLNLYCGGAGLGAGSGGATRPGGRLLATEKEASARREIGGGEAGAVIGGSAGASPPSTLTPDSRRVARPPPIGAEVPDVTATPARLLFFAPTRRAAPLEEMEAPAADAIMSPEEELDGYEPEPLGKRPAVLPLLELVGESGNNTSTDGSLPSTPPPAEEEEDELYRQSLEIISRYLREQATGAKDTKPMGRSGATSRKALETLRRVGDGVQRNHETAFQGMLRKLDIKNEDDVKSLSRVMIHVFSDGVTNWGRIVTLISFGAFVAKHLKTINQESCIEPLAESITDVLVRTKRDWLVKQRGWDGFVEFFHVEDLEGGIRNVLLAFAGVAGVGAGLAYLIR
Text: as §1, §2, §3, §4, §5, §6, §7

SCLC cell line NCI-H889 = test: CellTitre-Glow luminescent cytotoxicity assay, NCI-H889; format: cell-based; conditions: Homo sapiens; NCI-H889 cells, 48 hr incubation
Procedure: (§8) • 1. SCLC cell lines NCI-H889, NCI-H1963, and NCI-H146 were purchased from American Type Culture Collection. Cells were maintained in RPMI 1640 (Invitrogen Corp., Grand Island, N.Y.) supplemented with 10% fetal bovine serum (FBS, Invitrogen), 1% sodium pyruvate, 25 mM HEPES, 4.5 g/L glucose and 1% penicillin/streptomycin (Sigma) in a humidified chamber at 37° C. containing 5% CO2. • 2. cells were grown as suspension aggregates in a T162 flask with 25 ml medium and kept at concentration of 1 million/mL. Test Compound Stocks: • 1. test compounds were prepared as 10 mM stocks in DMSO and stored at −20° C. Test Compound Serial Dilutions: • 1. prewarmed medium to 37° C. • 2. thawed compounds to room temperature. • 3. determined what will be the highest concentration to be tested. (i.e. 10 μM). • 4. prepared a 2× stock in culture medium of the first dose (i.e. 2×10 μM=20 μM) in an Eppendorf tube (i.e. 4 μl of 5 mM stock into 1000 μl=20 μM). • 5. inverted tube several times to mix. […] Columns 1-10 comprised the serial test compound treatments, column 11 was the untreated control and column 12 was the ‘no cell’ control for determining the background. • 1. in a 96 well plate was added 50 μl medium/well in columns 2 thru 11 and 100 μl was added to column 12. • 2. in column 1 was added 100 μl of 2× compound. • 3. made serial dilutions by transferring 50 μl to column 2, and so on up to column 10. After adding 50 μl to column 10 and mixing, discarded 50 μl. • 4. stored plates at 37° C. until ready to add cells. Cell Preparation • 1. Cell were washed one time in the culture medium and prepared as a suspension. • a. cell were first spun down to remove the medium and then ˜1 ml 0.25% trypsin was added and gently mixed and incubated for no more than three minutes at room temperature. • b. ˜10 ml of the medium was added and the cells were gently pipetted several times. • c. cells were then counted and spun down to the volume necessary for the total cell number needed, then resuspended in the medium to 200 cells/μl concentration (50,000 cells/well). • 2. […]

SCLC cell line NCI-H146 = test: CellTitre-Glow luminescent cytotoxicity assay, NCI-H146; format: cell-based; conditions: Homo sapiens; NCI-H146 cells, 48 hr incubation
Procedure: as §8

SCLC cell line NCI-H1963 = test: CellTitre-Glow luminescent cytotoxicity assay, NCI-H1963; format: cell-based; conditions: Homo sapiens; NCI-H1963 cells, 48 hr incubation
Procedure: as §8

[2] = test system: mouse embryo fibroblasts (MEFs): wild type, Bax/Bak double knockout, Noxa-expressing, Bad-expressing; test: Cell viability assay on mouse embryo fibroblasts (propidium iodide uptake); format: cell-based; conditions: propidium iodide uptake after 24 hours
Procedure: FIG. 1 graphically depicts the effect of Compound 1 (FIG. 1A) and Etoposide (FIG. 1B), at increasing concentrations, on the % viability of certain mouse embryo fibroblast (MEF) cells as assessed by propidium iodide uptake after 24 hours. Noxa and Bad were introduced by retrovirally infecting the cells with pMIG retroviruses as described by Chen et al., 2005.
The efficacy of the compounds of the present invention can also be determined in cell based killing assays using a variety of cell lines and mouse tumor models. For example, their activity on cell viability can be assessed on a panel of cultured tumorigenic and non-tumorigenic cell lines, as well as primary mouse or human cell populations, e.g. lymphocytes. For these assays, 5,000-20,000 cells are cultured at 37° C. and 10% CO2 in appropriate growth media, eg: 100 μL Dulbecco's Modified Eagle's medium supplemented with 10% foetal calf serum, asparaginase and 2-mercaptoethanol in the case of pre-B Eμ-Myc mouse tumors in 96 well plates. […] Cell viability is determined by the ability of the cells to exclude propidium iodide (10 μg/mL by immunofluorescence analysis of emission wavelengths of 660-675 nm on a flow cytometer (BD FACScan). Alternatively, a high throughput calorimetric assay such as the Cell Titre 96 could be used. Aqueous Non-Radioactive Cell Proliferation Assay (Promega) may be used. Cell death by apoptosis is confirmed by pre-incubation of the cells with 50 μM of a caspase inhibitor such as zVAD-fmk.
Neutralisation of both Bcl-xL and Mcl-1 anti-apoptotic proteins in normal cells is required before a cell undergoes apoptosis via the downstream Bax/Bak pathway [Chen et al., 2005; Willis et al., 2005]. A compound that only targets Bcl-xL should not affect normal cells, but could kill certain cancer cells if they rely more on Bcl-xL and less on Mcl-1 for survival. To mirror this, compound 1 was tested for its effect on survival of wild type (wt) mouse embryo fibroblasts (MEFs), Bax/Bak double knockout (BB DKO) MEFs, MEFs that expressed Noxa, and MEFs that expressed Bad. Noxa specifically neutralizes Mcl-1.

Sequence of GST tagged BCl-xL ΔC25 protein (Q07817 1-208 limits assumed): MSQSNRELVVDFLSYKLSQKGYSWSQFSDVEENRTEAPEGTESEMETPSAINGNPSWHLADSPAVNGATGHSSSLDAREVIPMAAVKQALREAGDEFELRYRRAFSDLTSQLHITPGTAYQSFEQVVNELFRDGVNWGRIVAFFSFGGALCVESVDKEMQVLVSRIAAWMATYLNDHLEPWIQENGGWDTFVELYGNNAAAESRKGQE

Compound	IC50 [1] [nM]	IC50 (GST tagged Mcl-1 protein) [nM]	EC50 (SCLC cell line NCI-H889) [µM]	EC50 (SCLC cell line NCI-H146) [µM]	EC50 (SCLC cell line NCI-H1963) [µM]	Selectivity of killing of Noxa-expressing MEFs versus MEFs where both Bcl-xL and Mcl-1 are protective (% viability) ([2]; FIG. 1A/1B)	Effect on Bax/Bak double knockout (BB DKO) MEFs ([2]; FIG. 1B)
O=S(=O)(Nc1ncnc2cc(N3CCN(Cc4ccccc4-c4ccc(Cl)cc4)CC3)ccc12)c1ccc(N[C@H](CCN2CCOCC2)CSc2ccccc2)c(S(=O)(=O)C(F)(F)F)c1 [Compound 4, N-{7-[4-(4′-Chloro-biphenyl-2-ylmethyl)-piperazin-1-yl]-quinazolin-4-yl}-4-((R)-3-morpholin-4-yl-1-phenylsulfanylmethyl-propylamino)-3-trifluoromethanesulfonyl-benzenesulfonamide]	16	–	0.82	0.63	0.4	–	–
CN(C)CC[C@H](CSc1ccccc1)Nc1ccc(S(=O)(=O)Nc2ncnc3cc(N4CCN(CC5=C(c6ccc(Cl)cc6)CCC(C)(C)C5)CC4)ccc23)cc1[N+](=O)[O-] [Compound 5, N-(7-{4-[2-(4-Chloro-phenyl)-5,5-dimethyl-cyclohex-1-enylmethyl]-piperazin-1-yl}-quinazolin-4-yl)-4-((R)-3-dimethylamino-1-phenylsulfanylmethyl-propylamino)-3-nitro-benzenesulfonamide]	3	7000	–	–	–	–	–
CN(C)CC[C@H](CSc1ccccc1)Nc1ccc(S(=O)(=O)Nc2ncnc3cc(N4CCN(CC5=C(c6ccc(Cl)cc6)CCC(C)(C)C5)CC4)ccc23)cc1S(=O)(=O)C(F)(F)F [Compound 6, N-(7-{4-[2-(4-Chloro-phenyl)-5,5-dimethyl-cyclohex-1-enylmethyl]-piperazin-1-yl}-quinazolin-4-yl)-4-((R)-3-dimethylamino-1-phenylsulfanylmethyl-propylamino)-3-trifluoromethanesulfonyl-benzenesulfonamide]	3	20000	–	–	–	–	–
CC1(C)CCC(c2ccc(Cl)cc2)=C(CN2CCN(c3ccc4c(NS(=O)(=O)c5ccc(N[C@H](CCN6CCOCC6)CSc6ccccc6)c([N+](=O)[O-])c5)ncnc4c3)CC2)C1 [Compound 7, N-(7-{4-[2-(4-Chloro-phenyl)-5,5-dimethyl-cyclohex-1-enylmethyl]-piperazin-1-yl}-quinazolin-4-yl)-4-((R)-3-morpholin-4-yl-1-phenylsulfanylmethyl-propylamino)-3-nitro-benzenesulfonamide]	20	10000	–	–	–	–	–
COc1cc([C@@H]2c3cc4c(cc3[C@@H](O[C@@H]3O[C@@H]5CO[C@@H](C)O[C@H]5[C@H](O)[C@H]3O)[C@H]3COC(=O)[C@H]23)OCO4)cc(OC)c1O [etoposide]	–	–	–	–	–	less selectively than compound 1	resistance of BB DKO MEFs

The remaining molecules from weak to strong by IC50 [1], led by results:

IC50 [1] [nM]	IC50 (GST tagged Mcl-1 protein) [nM]	Compound	EC50 (SCLC cell line NCI-H889) [µM]	EC50 (SCLC cell line NCI-H146) [µM]	EC50 (SCLC cell line NCI-H1963) [µM]	Selectivity of killing of Noxa-expressing MEFs versus MEFs where both Bcl-xL and Mcl-1 are protective (% viability) ([2]; FIG. 1A/1B)	Effect on Bax/Bak double knockout (BB DKO) MEFs ([2]; FIG. 1B)
34	6000	O=[N+]([O-])c1cc(S(=O)(=O)Nc2ncnc3cc(N4CCN(Cc5ccccc5-c5ccc(Cl)cc5)CC4)ccc23)ccc1N[C@H](CCN1CCOCC1)CSc1ccccc1 [Compound 3, N-{7-[4-(4′-Chloro-biphenyl-2-ylmethyl)-piperazin-1-yl]-quinazolin-4-yl}-4-((R)-3-morpholin-4-yl-1-phenylsulfanylmethyl-propylamino)-3-nitro-benzenesulfonamide]	1.3	3.7	1.4	–	–
29	10000	CC1(C)CCC(c2ccc(Cl)cc2)=C(CN2CCN(c3ccc4c(NS(=O)(=O)c5ccc(N[C@H](CCN6CCOCC6)CSc6ccccc6)c(S(=O)(=O)C(F)(F)F)c5)ncnc4c3)CC2)C1 [Compound 8, N-(7-{4-[2-(4-Chloro-phenyl)-5,5-dimethyl-cyclohex-1-enylmethyl]-piperazin-1-yl}-quinazolin-4-yl)-4-((R)-3-morpholin-4-yl-1-phenylsulfanylmethylpropylamino)-3-trifluoromethanesulfonyl benzenesulfonamide]	–	–	–	–	–
6	50000	CN(C)CC[C@H](CSc1ccccc1)Nc1ccc(S(=O)(=O)Nc2ncnc3cc(N4CCN(Cc5ccccc5-c5ccc(Cl)cc5)CC4)ccc23)cc1S(=O)(=O)C(F)(F)F [Compound 2, N-{7-[4-(4′-Chloro-biphenyl-2-ylmethyl)-piperazin-1-yl]-quinazolin-4-yl}-4-((R)-3-dimethylamino-1-phenylsulfanylmethyl-propylamino)-3-trifluoromethanesulfonyl-benzenesulfonamide]	–	–	–	–	–
